Source: patent US20250171821A1, “HIF-1 ACTIVATORS AND USES THEREOF” (Ramot at Tel-Aviv University Ltd., priority 2022, published 2025)
Entries after “also recorded” stand apart in the source; their conditions may differ.

Experiments:
NIH/3T3 cell line = assay: Collagen type 1 immunofluorescence in NIH/3T3 cells (Incucyte); type: cell-based, mouse
Procedure: Embryonic mouse fibroblast NIH/3T3 cell line (ATCC) were seeded at a concentration of 50*10^3 cells/well on 96 well glass bottom plate (P96-1.5H-N, Cellvis) for the immunofluorescence experiment and on cell culture microplate, 96 well, PS, F-Bottom (655090, greiner) for the viability experiment. The cells were cultured with Dulbecco's modified Eagle's medium (DMEM) supplemented with 10% fetal calf serum, 1% Penicillin-Streptomycin solution and 1% L-glutamine (All purchased from Rhenium). At 24 hours post seeding, cells were treated for another 48 hours by replacing them with the cell medium supplemented with a serial dilution (5-0.02 μM, factor dilution of 2) of the ML228, Daprodustat, Enarodustat, Molidustat, Vadadustat or Roxadustat molecules dissolved in DMSO. The final DMSO concentration in the cell medium was 0.01%. Cells were maintained in an incubator at 37° C. in a humidified atmosphere containing 5% CO2.
At 48 hours post treatment with either Daprodustat, Enarodustat, Molidustat, Vadadustat or Roxadustat, cells were fixed for 10 minutes together with their media with 8% paraformaldehyde (PFA, Electron Microscopy Sciences) dissolved in phosphate-buffered saline (PBS, Invitrogen) to a final concentration of 4% PFA, without any wash to avoid cells detachment from the glass. Cells were briefly washed four times with ice-cold PBS to remove the PFA and kept overnight at 4° C. The following day, a blocking solution which contains 1.5% Bovine Serum Albumin (Sigma Aldrich) dissolved in PBS was applied for 30 minutes, followed by an overnight incubation at 4° C. with recombinant rabbit anti-mouse Collagen-I 1° antibody (primary Ab) [EPR24331-53] (ab270993, Abcam), dissolved in the blocking solution (1:1000 dilution). The following day, cells were washed for 3 times with PBS (5 minutes each), followed by immunostaining with goat anti-rabbit IgG H&L (Alexa Fluor® 488) 2° antibody (secondary Ab) (ab150077, Abcam) dissolved in blocking solution (1:1000 dilution). Cells were washed again for 3 times with PBS (5 minutes each), stained for 30 minutes with DRAQ5™ (ab108410, Abcam) for nuclei staining dissolved in PBS (1:1000 dilution), and washed once again with PBS. For the ML228 experiment, cells were washed with PBS before applying 4% PFA dissolved in PBS. Then, fixed cells were additionally permeabilized with 0.2% Triton™ X-100 (Merck) dissolved in PBS, additionally stained with Phalloidin-Atto 594 (51927, Sigma Aldrich) for F-Actin staining for 1 hour (1:250 dilution) together with the aforementioned secondary antibody, followed by 10 minutes incubation with DAPI staining solution (ab228549, Abcam) for nuclei staining dissolved in PBS (1:1000 dilution).
Images were taken using a ZEISS LSM 900 in wide-field or in the LSM confocal detection mode (ML228 experiment), using Zen 3.1. Fluorescence readouts were obtained at excitation/emission: 353/465 nm (DAPI), 493/517 nm (Collagen-I), 590/618 (F-Actin) and 647/683 nm (DRAQ5) using a Plan-Apochromat 20×/0.8 M27 objective.
Image acquisition and quantification were performed by Incucyte SX5 (Sartorius) using software version 2022B Rev2. A standard scan was done for 9 images per well using 20× objective, 2 optical modules (green at excitation/emission of 453-485 nm/494-533 nm in 300 msec acquisition time, and near-IR at excitation/emission of 648-674 nm/685-756 nm in 400 msec acquisition time, including Phase channel) following immunofluorescence protocol. For the image analysis, 2-6 replicates per condition were used. Using the Basic Analyzer mode, “Phase Object Confluence (%)” was acquired using the Phase channel. This measurement is the percentage of the image area occupied by cells. “Total Collagen-I Integrated Intensity Per Image (GCU×μm^2/Image)” was acquired using the green optical module. GCU stands for Green calibrated Unit, while this measurement is the total sum of the Collagen-I objects' fluorescent intensity in the image. “#Cells (Per image)” was acquired by the near-IR optical module. […]

MG-63 osteoblasts = assay: Collagen-I immunofluorescence in MG-63 osteoblasts treated with ML228; type: cell-based, human
Procedure: MG-63 human osteosarcoma cell lines were obtained from the American Type Culture Collection (ATCC, Manassas, VA, USA). Cells were cultured in α-MEM supplemented with 10% FCS, 100 U/ml penicillin, and […] streptomycin at 37° C. in a humidified atmosphere incubator containing 5% CO2. Before treatment with ML228, 5,000 and 50,000 cells/well were seeded in a 96 or 24 well-plate, respectively.
Cells were cultured to sub-confluence on a 96-well plate culture plate or on round-glass cover slips in a 24 well plate and incubated with ML228 at 37° C. in 5% CO2 for 24-96 hours. […] Fluorescence readouts were obtained with excitation/emission (ex/em) of 495/519 nanometer (nm; green) and 340/488 nm (blue) (for FIGS. 2B and 2D); or with ex/em of 358/461 nm (blue), 495/519 nm (green) and 652/668 nm (red) (for FIG. 5A).
All images were analyzed with the computer-based image analysis system (Image J) using the Fiji 2 software (National Institute of Health). Equal field areas were selected for analysis and quantification of fluorescence signals. Quantification of fluorescence signal intensity measured by color threshold and normalized against β-tubulin intensity. Total collagen was evaluated by total fluorescence area intensity.
The effect of ML228 (chemical structure thereof is depicted in FIG. 1), a known activator of HIF, on fibroblasts and osteoblasts was analyzed. […]

In the case of `c1ccc(-c2ccc(CNc3nc(-c4ccccn4)nnc3-c3ccccc3)cc2)cc1` [ML228, N-([1,1′-Biphenyl]-4-ylmethyl)-6-phenyl-3-(2-pyridinyl)-1,2,4-triazin-5-amine], the “Collagen type 1 normalized to cells confluence vs untreated cells” value (NIH/3T3 cell line; 5 μM ML228, 48 hours, p<0.05) is reported as “reduction”, the “concentrations with significant increase of Collagen type 1 normalized to cells confluence vs untreated cells” value (NIH/3T3 cell line; 48 hours, one-way ANOVA, p<0.05 to p<0.0001) is reported as 0.31 to 2.5 µM and the “concentration of maximum enhancement of Collagen-I” value (MG-63 osteoblasts; MG-63, 48 hours, normalized to cell number (DAPI), FIG. 9B) is reported as 5 µM. For the same molecule, the “increase in collagen levels compared to non-treated cells” value (MG-63 osteoblasts; osteoblasts (MG-63), variable ML228 concentrations, 48 hours) was “more than a three-fold increase; also recorded: increased”.
